From PMC12431657, “Discovery and mechanistic insights of dibenzoylmethane as a broad spectrum inhibitor of coronavirus” (PLOS Pathogens, 2025)
Values joined by “and” are separate entries in the source; they are usually repeats but may differ in a detail not shown here. Equal values may be shown once. Where a name gives a salt, the structure may show the parent alone.

Key:
Type in all cases: cell-based
RD cells = tested on: RD cells
HCoV-OC43 [1] = experiment: HCoV-OC43 replication in siRNA-transfected cells; conditions: replicates
HCoV-229E = experiment: HTS luminescent cell viability assay, HCoV-229E infection; conditions: for inhibition at 10 µM: Human coronavirus 229E, 24 h, read-out: 229E Inhibition rate
HCoV-OC43 [2] = experiment: microbe, parasite or virus in culture; conditions: for inhibition at 10 µM: Betacoronavirus 1, OC43, 24 h, read-out: OC43 Inhibition rate
[3] = compound 10 μM, 24 h postinfection

Molecule	Relative mRNA content following siRNA knockdown (RD cells)	HCoV-OC43 replication in siRNA-transfected cells, inhibition (HCoV-OC43 [1])	further results
CASP7-1 (sense GUGCCAAGAUGCAAGAUCUTT; antisense AGAUCUUGCAUCUUGGCACTT; chemistry not given here)	0.04453 and 0.02767 and 0.03038 and 0.03195 and 0.02491 and 0.0301	-1.2 and -4.0 and -5.1 and 6.9 and -3.2 and 8.5	–
CASP7-2 (sense GAGGAUUCAGCAAAUGAAGTT; antisense CUUCAUUUGCUGAAUCCUCTT; chemistry not given here)	0.04124 and 0.03671 and 0.03839 and 0.05589 and 0.05554 and 0.05883	-52.2 and -54.8 and -44.2 and 4.9 and 14.1	–
O=C(O)c1cc(C(=O)O)c2c(n1)C(=O)C(=O)c1cc(C(=O)O)[nH]c1-2 [Pyrroloquinoline quinone (disodium salt)]	–	–	229E Inhibition rate (HCoV-229E; [3]): 4.0%; OC43 Inhibition rate (HCoV-OC43 [2]; [3]): -0.3%
O=C(O)c1cc(C(=O)O)c2c(n1)C(=O)C(=O)c1cc(C(=O)O)[nH]c1-2 [Pyrroloquinoline quinone]	–	–	inhibition at 10 µM (HCoV-229E): 4.2%; inhibition at 10 µM (HCoV-OC43 [2]): -0.2%
CASP3-2 (sense CCCUGGACAACAGUUAUAATT; antisense UUAUAACUGUUGUCCAGGGTT; chemistry not given here)	0.000229 and 0.000196 and 0.000194 and 0.000282 and 0.000327 and 0.000307	3.7 and -8.9 and -0.3 and 15.3 and 18.4 and 14.9	–
CASP3-1 (sense CCGACAAGCUUGAAUUUAUTT; antisense AUAAAUUCAAGCUUGUCGGTT; chemistry not given here)	–	-3.8 and -7.6 and -9.9 and 15.1 and 8.0 and 7.0	–
Nc1ncnc2c1ccn2[C@@H]1O[C@H](CO)[C@@H](O)[C@H]1O [Tubercidin]	–	–	inhibition at 10 µM (HCoV-229E): 12.9%; inhibition at 10 µM (HCoV-OC43 [2]): 1.9%
